Laboratory results taken from PMC12797170, “Potent Competitive Inhibitors of Ecto-5′-nucleotidase (CD73) based on 6‑(Het)aryl-7-deazapurine Ribonucleoside 5′‑O‑Bisphosphonates” (ACS Pharmacology & Translational Science, 2025).
Values after ≈ are worked out from the molar mass of the structure shown.

Legend:
[1] = Microsomal stability assay, mouse liver microsomes; assay type: in vitro ADME; conditions: for Mics (m) comp remaining 60 min: 10 μM; for microsomal CLint at 10 µM: pooled liver microsomes, pH 7.4, read-out: Mics (m) CLint
[2] = Plasma protein binding, equilibrium dialysis, human plasma; assay type: in vitro ADME; conditions: undiluted plasma, human plasma protein binding, read-out: PPB (hu) (converted)
[3] = test system: MDA-MB-231 breast cancer cell line; experiment: CellTox Green cytotoxicity assay; assay type: cell-based, human; conditions: 24 h
Protocol: MDA-MB-231 cells were harvested and counted using an automated cell counter. A total of 2,500 cells per well were seeded in 20 μL of phenol red-free complete RPMI medium into black 384-well plates. Five μL of CD73 inhibitors (final concentration: […]) or 5 μL PBS (negative control) were added to each well, except for wells designed as maximal signal (dead cell) controls. Plates were incubated for 24 h at 37 °C in a humidified CO2 incubator. To generate the maximum signal control, 5 μL of lysis buffer (CellTox Green Cytotoxicity Assay, Promega) was added to the dead cell controls, followed by a 30 min incubation at room temperature. Subsequently, 25 μL/well of CellTox Green Dye (diluted 1:500 in the assay buffer; Promega) was added. Plates were incubated in the dark on an orbital shaker at 500–700 rpm for 15 min. Fluorescence was measured using an Infinite M1000 plate reader (Tecan) with excitation at 485–500 nm and emission at 520–530 nm. Data were analyzed in GraphPad Prism 10.
Figure S2: Effect of CD73 inhibition on the viability of CD73-expressing breast cancer cell line. MDA-MB-231 cells were incubated with 10 µM CD73 inhibitors for 24 hours. Viability was assessed using the CellTox™ Green Cytotoxicity Assay.
± s.d. of technical triplicates (s.d., standard deviation).
(1 picture or pasted object on this page, not shown here)

CCRF-CEM = experiment: In vitro cytotoxic activity; assay type: cell-based; conditions: Homo sapiens
Protocol: (§1) All the compounds were also tested for their in vitro cytotoxic activity on a small panel of four cancer cell lines (CCRF-CEM, HepG2, HeLa S3, HL-60) and nonmalignant human dermal fibroblasts (NHDF).

HL-60 = experiment: In vitro cytotoxic activity; assay type: cell-based; conditions: Homo sapiens
Protocol: as §1

HeLa S3 = experiment: In vitro cytotoxic activity; assay type: cell-based; conditions: Homo sapiens
Protocol: as §1

HepG2 = experiment: In vitro cytotoxic activity; assay type: cell-based; conditions: Homo sapiens
Protocol: as §1

[4] = test system: nonmalignant human dermal fibroblasts (NHDF); experiment: In vitro cytotoxic activity; assay type: cell-based
Protocol: as §1

[5] = biological target: T1, recombinant human CD73 (hCD73) (Homo sapiens, UniProt P21589); experiment: CD73 activity assay on recombinant human CD73; assay type: biochemical; conditions: ΔGexp = RT ln Ki
T1 sequence (P21589 27-574): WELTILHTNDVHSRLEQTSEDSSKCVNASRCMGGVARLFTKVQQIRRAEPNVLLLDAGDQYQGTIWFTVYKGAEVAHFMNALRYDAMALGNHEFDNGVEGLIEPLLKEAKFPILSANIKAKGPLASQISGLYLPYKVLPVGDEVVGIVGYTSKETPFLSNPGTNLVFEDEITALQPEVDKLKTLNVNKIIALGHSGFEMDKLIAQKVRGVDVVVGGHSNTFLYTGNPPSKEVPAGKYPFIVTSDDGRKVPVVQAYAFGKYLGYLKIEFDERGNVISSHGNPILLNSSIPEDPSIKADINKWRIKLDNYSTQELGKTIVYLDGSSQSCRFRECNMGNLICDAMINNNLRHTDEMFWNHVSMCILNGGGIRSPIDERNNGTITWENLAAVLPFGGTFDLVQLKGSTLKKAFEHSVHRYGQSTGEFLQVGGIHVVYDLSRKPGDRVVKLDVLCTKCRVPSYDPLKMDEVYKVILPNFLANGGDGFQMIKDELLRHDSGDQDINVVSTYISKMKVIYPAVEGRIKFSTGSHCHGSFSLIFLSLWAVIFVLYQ

[6] = Plasma protein binding, mouse plasma; assay type: in vitro ADME; conditions: mouse, plasma
in vitro [7] = conditions: human, plasma
[8] = In vivo pharmacokinetic study, intravenous; parameters: species or system male CD-1 mice; conditions: plasma, 1 mg/kg, intravenous
In short: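 Single intravenous dose in male CD-1 mice (n=3, 9 weeks, 29.2–33.7 g). Plasma levels measured by LC-MS/MS at 5, 15, 30, 60, 120, 240 and 480 min.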

[9] = Kinetic solubility in PBS; assay type: physicochemical; conditions: phosphate-buffered saline, pH 7.4, aqueous buffer, kinetic from dmso stock
In short: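 DMSO stocks diluted into PBS pH 7.4 to 100 μM and shaken 2 h at room temperature in duplicate, then filtered by centrifugation. Filtrates diluted 1:99 in 50% acetonitrile. Quantified by Echo-MS against calibration standards spanning 0.05–4 μM.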

in vitro [10] = conditions: mouse, plasma
[11] = Microsomal stability assay, human liver microsomes; assay type: in vitro ADME; conditions: for Mics (hu) comp remaining 60 min: 10 μM; for microsomal CLint at 10 µM: pooled liver microsomes, pH 7.4, read-out: Mics (hu) CLint
[12] = AB680 literature row of Table 4; cited from earlier work
CD8+ T cells = experiment: CD8+ T cell activation assay (CD25, IFN-γ, granzyme B); assay type: cell-based, human; conditions: 500 nM, separate CD8+ T-cell activation assays
Protocol: 6 CD73 inhibition partially reverses the immunosuppressive effect of adenosine generated from AMP in CD8 ^ + T cells. CD8^+ T cells were activated using CD3/CD28 activation beads in the presence of 2.5 μM EHNA, with or without 1 mM AMP and CD73 inhibitors (500 nM or 50 nM). A. CD25 expression. The percentage of CD8^+ T cells expressing the activation marker CD25 was measured by flow cytometry 60 h after activation. Data represent technical triplicates. B. Cytokine secretion. Granzyme B and IFN-γ levels in the culture supernatant were quantified by ELISA 60 h after activation. The data represent technical duplicates from two independently treated wells.
Peripheral blood was obtained from healthy donors at the Military University Hospital Prague, following informed consent. CD8+ T cells were enriched using the RosetteSep Human CD8+ T Cell Enrichment Cocktail ([…] Technologies) according to the manufacturer’s instructions and subsequently isolated by density gradient centrifugation using SepMate tubes ([…] Technologies). Residual red blood cells were lysed using a red blood cell lysis buffer (155 mM NH4Cl, 12 mM NaHCO3, 0.1 mM EDTA, pH = 7.1–7.4). The isolated CD8+ T cells were resuspended in complete RPMI and counted using an automated cell counter.
CD8+ T cells were seeded at 5 × 10^4 cells/well in 50 μL of complete RPMI in a flat-bottom 96-well plate. […] This was followed by the addition of 10 μL of a CD73 inhibitor at either 5 μM or 500 nM (experimental wells) or 10 μL of complete RPMI (control wells). Subsequently, 20 μL of 5 mM AMP was added to all wells except those serving as controls for maximal T cell activation. […]
Following incubation, supernatants were collected for quantification of IFN-γ and granzyme B using ELISA. […] Finally, stained cells were washed and analyzed using a BD LSRFortessa flow cytometer. Data were processed and analyzed using FlowJo software (version 10.8.1) and GraphPad Prism 10.
Secretion of IFN-γ and granzyme B was quantified using Human IFN-γ DuoSet ELISA and Human Granzyme B DuoSet ELISA (R&D Systems) according to the manufacturer’s instructions. […]

[13] = Tables 2 and 4, mouse plasma, read-out: fup, fraction unbound in mouse plasma
[14] = mouse plasma protein binding, read-out: PPB (m) (converted)

O=P(O)(O)CP(=O)(O)OC[C@H]1O[C@@H](n2ccc3c(-c4cccc5ccccc45)nc(Cl)nc32)[C@H](O)[C@@H]1O [7B.6]
Mics (m) comp remaining 60 min [1]: 94% | microsomal CLint at 10 µM [1]: 2 µL/min/mg | fraction unbound at 4 h, 100 µM [2]: 0.034 | in vitro cytotoxicity against MDA-MB-231 [3]: nontoxic | IC50 (CCRF-CEM): > 10 µM | IC50 (HL-60): 2900 nM | IC50 (HeLa S3): > 10 µM | IC50 (HepG2): > 10 µM | IC50 [4]: > 10 µM | dG_exp, experimental binding free energy [5]: –15.4 kcal/mol | fraction unbound at 4 h, 100 µM [6, 13]: 0.27 | fraction unbound at 4 h, 100 µM [6, 14]: 0.274 | half-life at 10 µM (in vitro [7]): > 120 min | half-life ([8]; male, CD-1, mouse, iv, footnote: t1/2 stability in plasma, text: half-life in mouse PK): 126 min | clearance ([8]; mouse, male CD-1 mice, single dose, read-out: Cl (obs), observed clearance): 0.73 mL/min/kg | solubility at 2 h [9]: 92 µM (≈ 52.4 µg/mL) | half-life at 10 µM (in vitro [10]): > 120 min | Mics (hu) comp remaining 60 min [11]: 96% | microsomal CLint at 10 µM [11]: 1 µL/min/mg

C[C@H](Nc1cc(Cl)nc2c1cnn2[C@@H]1O[C@H](COP(=O)(O)CP(=O)(O)O)[C@@H](O)[C@H]1O)c1ccccc1F [AB680, quemliclustat, reference compound]
fup, fraction unbound in mouse plasma [12]: 0.89 | Mics (m) comp remaining 60 min [1]: 117% | microsomal CLint at 10 µM [1]: < 2 µL/min/mg | fraction unbound at 4 h, 100 µM [2]: ≤ 0.01 | median increase in CD25 expression (CD8+ T cells): 41% | fraction unbound at 4 h, 100 µM [6, 13]: 0.1 | fraction unbound at 4 h, 100 µM [6, 14]: 0.098 | half-life at 10 µM (in vitro [7]): > 120 min | solubility at 2 h [9]: 76 µM (≈ 44.1 µg/mL) | half-life at 10 µM (in vitro [10]): > 120 min | Mics (hu) comp remaining 60 min [11]: 118% | microsomal CLint at 10 µM [11]: < 2 µL/min/mg
